Results: PMC7887271, “Fast acting allosteric phosphofructokinase inhibitors block trypanosome glycolysis and cure acute African trypanosomiasis in mice” (Nature Communications, 2021)
Where “and” joins values, the source holds several entries; their conditions need not be identical. Identical values can stand only once.

How the values were obtained:
[1] = target: T1, CYP2C9 (Homo sapiens, UniProt P11712); assay: Inhibition of CYP450 2C9; format: in vitro ADME; conditions: CYP450 isoform inhibition kit (BD Biosciences), probe MFC
T1 construct: purchased BD Biosciences
T1 sequence (P11712 whole entry, canonical isoform): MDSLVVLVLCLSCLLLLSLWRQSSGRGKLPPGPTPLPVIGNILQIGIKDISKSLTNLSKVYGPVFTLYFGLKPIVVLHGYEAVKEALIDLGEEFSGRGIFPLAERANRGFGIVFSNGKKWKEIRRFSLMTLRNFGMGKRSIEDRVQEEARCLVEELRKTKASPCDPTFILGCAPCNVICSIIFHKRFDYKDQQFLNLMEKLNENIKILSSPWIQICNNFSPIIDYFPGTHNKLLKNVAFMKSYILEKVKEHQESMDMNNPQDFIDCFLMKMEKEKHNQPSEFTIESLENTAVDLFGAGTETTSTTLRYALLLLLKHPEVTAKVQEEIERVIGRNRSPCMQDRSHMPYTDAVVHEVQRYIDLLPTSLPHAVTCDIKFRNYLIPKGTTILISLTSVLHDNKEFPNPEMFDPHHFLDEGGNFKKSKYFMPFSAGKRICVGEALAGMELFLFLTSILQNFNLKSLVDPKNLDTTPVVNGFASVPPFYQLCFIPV
Procedure: A HepG2 cytotoxicity assay was used to determine a cellular selectivity index. HepG2 cells were seeded into 96-well plates in EMEM medium. Compounds were assessed for their effect upon cellular viability (Supplementary Methods 5.1). Inhibition of CYP450 was determined using kits from BD Biosciences (Supplementary Methods 5.2). Metabolic stability was determined using mouse […] tested at a single concentration of 5 µM. Plasma protein binding was determined using mouse and human plasma at a single concentration of 10 µM (Supplementary Methods 5.4). All PK studies in mice were carried out by Pharmidex (Supplementary Methods 6.1).
The compounds were investigated for their inhibitory effect on cytochrome P450 (CYP450) activity using five CYP450 isoforms (with fluorescent substrates in brackets): 3A4 (two substrates, BFC and DBF), 2D6 (AMMC), 2C9 (MFC), 2C19 (CEC) and 1A2 (CEC). Kits from BD Biosciences were used along with the method described by the manufacturer. […] Fluorescence was measured using a SpectraMax M5 plate reader.

[2] = test system: T. b. brucei GVR35-VSL2; assay: Mouse model of stage 1 and stage 2 HAT, bioluminescence imaging; format: in vivo, T. b. brucei in female CD-1 mice; conditions: for Side head bioluminescence - Total Flux: D23, individual mice, Supp_Fig13; for parasitaemia in brains of saline-perfused mice: stage 2, day 23, ex vivo; for bioluminescence signal in the body, stage 2 treatment: treatment from day 21
Description: An alternative mouse model for stage 1 (acute) and stage 2 (CNS-involved) HAT has been developed using a transgenic cell line derived from the pleiomorphic T. b. brucei GVR35 that expresses red-shifted firefly luciferase[17],[18]. […] T. b. brucei GVR35-infected mice present stage 1 disease by day 7 post infection with progression to stage 2 by day 21. By injecting the mouse with luciferin, the level of parasitaemia can be estimated in real time by monitoring the luminescence. Unlike monomorphic Lister 427 T. b. brucei, the pleiomorphic GVR35 T. b. brucei is controlled by a quorum-sensing mechanism resulting in the significant increase in survival time in mice and lower blood parasitaemia that occurs in waves. This extended survival time is also accompanied by parasite dissemination to multiple tissues and organs, including the skin, adipose tissue, lung and brain, with parasite loads increasing over time[17],[19].
For the mouse model of stage 1 and stage 2 HAT T. b. brucei GVR35-VSL2 parasites (3 × 10^4) were injected into a single donor female CD-1 mouse intraperitoneally. Once infection was established, starting on day 7 for stage 1 studies and day 21 for stage 2 studies, mice were either left untreated (n = 3) or dosed by oral gavage with CTCB compound in Cremophor EL: EtOH: D-PBS (30:10:60 v/v; n = 6). Progression of T. b. brucei GVR35-VSL2 infection was monitored primarily by in vivo bioluminescence imaging of infected mice using an IVIS Spectrum (PerkinElmer). For stage 1 studies, imaging of infected mice was performed before treatment on day 7 post infection and on days following the treatment (days 8, 9 and 14). Imaging on groups of three mice was performed 12 min after intraperitoneal injection of 150 mg kg^−1 D-luciferin (Promega) in PBS. For stage 2 studies, mice were imaged prior to treatment on day 21, and subsequently on days 22 and 23. On day 23, 24 h after the final dose, mice were sacrificed by cervical dislocation and perfused with PBS containing 15 g L^−1 glucose to allow ex vivo imaging of whole brains (Supplementary Figs. 12 and 13).
Female CD-1 (Charles River UK; 6-8 weeks old) mice were infected with 3 × 10^4 T. b. brucei GVR35-VSL2 bloodstream form parasites intraperitoneally. T. b. brucei GVR35-VSL2 expresses red-shifted luciferase and provides a better signal for imaging (13). Once infection was established, starting on day 7 for Stage 1 studies and day 21 for Stage 2 studies, mice were either left untreated (n=3) or dosed by oral gavage with CTCB compound in Cremophor EL: EtOH : D-PBS (30:10:60 v/v) (n = 6). Additional groups of mice (n=3) that received either a single intraperitoneal dose of diminazene aceturate (Sigma-Aldrich) at 40 mg/kg in sterile water or 0.1 ml melarsoprol gel (14) containing 3.6 mg melarsoprol, applied topically for 3 consecutive days, served as controls for Stage 1 and Stage 2 treatment studies, respectively.
Progression of T. b. brucei GVR35-VSL2 infection was monitored primarily by in vivo bioluminescence imaging of infected mice using an IVIS Spectrum (PerkinElmer) as described previously (5). For stage 1 studies, imaging of infected mice was performed before treatment on day 7 post-infection and in days following the treatment (days 8, 9 and 14). Imaging on groups of three mice was performed 12 minutes after intraperitoneal injection of 150 mg/kg D-luciferin (Promega) in PBS. For stage 2 studies, mice were imaged prior to treatment on day 21 and subsequently on days 22 and 23. On day 23, 24 hours after the final dose, mice were sacrificed by cervical dislocation and perfused with phosphate-buffered saline containing 15 g.L^−1 glucose to allow ex vivo imaging of whole brains. To this end, 100 μl D-luciferin was administered onto the brain surface and imaging performed immediately thereafter.

[3] = treatment during stage 1 (day 7)

SMILES	inhibition at 10 µM [1] [%]	Side head bioluminescence - Total Flux [2]	parasitaemia in brains of saline-perfused mice [2]	bioluminescence signal in the body, stage 2 treatment [2]	detection of parasites in blood delayed to [2, 3] [day post infection]	effect on parasitaemia, stage 1 treatment [2, 3]
CN(C)CCn1ccc2c(ccn2Cc2ccc(Cl)c(Br)c2)c1=O [CTCB-470, 1-[(3-Bromo-4-chlorophenyl)methyl]-5-[2-(dimethylamino)ethyl] pyrrolo[3,2-c]pyridin-4-one]	28.5	1.100E+07 p/s and 7.724E+06 p/s and 5.606E+06 p/s and 1.306E+06 p/s and 2.050E+07 p/s and 2.702E+06 p/s	very clear reduction in parasitaemia	fast and significant signal reduction in the body	–	–
CN(C)CCn1ccc2c(ccn2Cc2ccc(F)c(Br)c2)c1=O [CTCB-508, 1-[(3-Bromo-4-fluorophenyl)methyl]-5-[2-(dimethylamino)ethyl] pyrrolo[3,2-c]pyridin-4-one]	6.1	7.338E+06 p/s and 1.920E+06 p/s and 5.353E+06 p/s and 4.553E+06 p/s and 1.258E+07 p/s and 2.035E+07 p/s	very clear reduction in parasitaemia	fast and significant signal reduction in the body	–	–
CN(C)CCn1ccc2c(ccn2Cc2ccc(Cl)c(Cl)c2)c1=O [CTCB-405, 1-[(3,4-Dichlorophenyl)methyl]-5-[2-(dimethylamino)ethyl] pyrrolo[3,2-c]pyridin-4-one]	11	–	–	–	14	reduced parasitaemia in the body and blood of mice
